The values that follow come from ChEMBL document CHEMBL1131893, “Antitumor agents 201. Cytotoxicity of harmine and beta-carboline analogs” (1999).

Each structure is given as a SMILES string. In brackets after ≈: the same amount, converted by molar mass. Activity calls are given as the source filed them. The calls are words filed in the database; no cut-off is given here. Some results are limits rather than exact numbers.

In one test the test system is A549. Nature of the test: In vitro cytotoxic activity was determined against lung carcinoma (A549) cell line. In kind it is functional. The conditions noted are these: Homo sapiens, read-out: ED50 (the source's name).
Consider `CCOc1ccc2c(c1)[nH]c1c(C)nccc12`, for which the EC50 was 5 µg/mL (≈ 22.1 µM).
Consider `COc1cc2[nH]c3c(C)nccc3c2cc1Br`, for which the EC50 amounted to 13.6 µg/mL (≈ 46.7 µM).
In the case of `COS(=O)(=O)O.Cc1nccc2c1[nH]c1ccccc12`, the EC50 was over 20 µg/mL.
Same read-out and setting: in the case of `CCCCCCCCCCCCCCCCOc1ccc2c(c1)[nH]c1c(C)nccc12` it was 5 µg/mL (≈ 11.8 µM).
Turning to `Cc1nccc2c1[nH]c1cc(OC(=O)C34CCC(C)(C(=O)O3)C4(C)C)ccc12` (centres undefined), the EC50 is 17 µg/mL (≈ 44.9 µM).
Same read-out and setting: in the case of `CCCCCCCCCCOc1ccc2c(c1)[nH]c1c(C)nccc12` it was 1.2 µg/mL (≈ 3.55 µM); in that of `Cc1[nH]ccc2c1[nH]c1cc(=O)ccc12` [HARMOL], 6.5 µg/mL (≈ 32.8 µM).

The next test concerns CAKI-1. Nature of the test: In vitro cytotoxic activity was determined against renal cancer (CAKI-1) cell line. In kind it is functional. The conditions noted are these: Homo sapiens, read-out: ED50 (the source's name).
Regarding `CCOc1ccc2c(c1)[nH]c1c(C)nccc12`, the EC50 was determined as 9 µg/mL (≈ 39.8 µM).
The same measure, in the same setting: the figure for `COc1cc2[nH]c3c(C)nccc3c2cc1Br` is 6.7 µg/mL (≈ 23 µM); for `COS(=O)(=O)O.Cc1nccc2c1[nH]c1ccccc12` it is over 20 µg/mL; for `Cc1nccc2c1[nH]c1cc(OC(=O)C34CCC(C)(C(=O)O3)C4(C)C)ccc12` (centres undefined) it is over 20 µg/mL.
On to `CCCCCCCCCCOc1ccc2c(c1)[nH]c1c(C)nccc12`, for which the EC50 came out at 5 µg/mL (≈ 14.8 µM).
Take `Cc1[nH]ccc2c1[nH]c1cc(=O)ccc12` [HARMOL]: the EC50 was found to be 9.2 µg/mL (≈ 46.4 µM).

The test system of a further test is CAKI-1. As to the kind of experiment: In vitro cytotoxic activity was determined against renal cancer (CAKI-1) cell line; Not active. In kind it is functional, cell-based. The settings on record: Homo sapiens.
For the molecule `CCCCCCCCCCCCCCCCOc1ccc2c(c1)[nH]c1c(C)nccc12`, the ED50 entry was “inactive”.

Another test relates to HCT-8. As to the kind of experiment: In vitro cytotoxic activity was determined against ileocecal carcinoma (HCT-8) cell line. The format is functional. The conditions noted are these: Homo sapiens, read-out: ED50 (the source's name).
`COc1cc2[nH]c3c(C)nccc3c2cc1Br`: the EC50 was determined as 16 µg/mL (≈ 55 µM).
For `CCCCCCCCCCOc1ccc2c(c1)[nH]c1c(C)nccc12`, the EC50 is 4.1 µg/mL (≈ 12.1 µM).

A further test deals with HCT-8. As to the kind of experiment: In vitro cytotoxic activity was determined against ileocecal carcinoma (HCT-8) cell line; Not active. The format is functional, cell-based. The conditions noted are these: Homo sapiens.
Take `CCCCCCCCCCCCCCCCOc1ccc2c(c1)[nH]c1c(C)nccc12`: the ED50 entry was “inactive”.

The subject of the next test is HEL. As to the kind of experiment: In vitro cytotoxic activity was determined against embryonic lung fibroblast (HEL) cell line. In kind it is functional. The settings on record: Homo sapiens, read-out: ED50 (the source's name).
`COS(=O)(=O)O.Cc1nccc2c1[nH]c1ccccc12`: the EC50 is over 20 µg/mL.

A further test relates to HOS. As to the kind of experiment: In vitro cytotoxic activity was determined against osteosarcoma ( HOS) cell line. In kind it is functional. The conditions noted are these: Homo sapiens, read-out: ED50 (the source's name).
As to `COc1cc2[nH]c3c(C)nccc3c2cc1Br`, the EC50 stood at 6.5 µg/mL (≈ 22.3 µM).
Regarding `CCCCCCCCCCCCCCCCOc1ccc2c(c1)[nH]c1c(C)nccc12`, the EC50 came out at 5 µg/mL (≈ 11.8 µM).
For `CCCCCCCCCCOc1ccc2c(c1)[nH]c1c(C)nccc12`, the EC50 is 6.7 µg/mL (≈ 19.8 µM).

A further test relates to KB. As to the kind of experiment: In vitro cytotoxic activity was determined against epidermoid carcinoma of the nasopharynx (KB) cell line. In kind it is functional. The conditions noted are these: Homo sapiens, read-out: ED50 (the source's name).
Regarding `CCOc1ccc2c(c1)[nH]c1c(C)nccc12`, the EC50 stood at 10.2 µg/mL (≈ 45.1 µM).
In the case of `COc1cc2[nH]c3c(C)nccc3c2cc1Br`, the EC50 was found to be 7.9 µg/mL (≈ 27.1 µM).
Still for that read-out and setting: in the case of `COS(=O)(=O)O.Cc1nccc2c1[nH]c1ccccc12` it was 10.5 µg/mL; in that of `Cc1nccc2c1[nH]c1cc(OC(=O)C34CCC(C)(C(=O)O3)C4(C)C)ccc12` (centres undefined), over 10 µg/mL; in that of `CCCCCCCCCCOc1ccc2c(c1)[nH]c1c(C)nccc12`, 2 µg/mL (≈ 5.91 µM).
Take `Cc1[nH]ccc2c1[nH]c1cc(=O)ccc12` [HARMOL]: the EC50 came to 4.4 µg/mL (≈ 22.2 µM).

The next test relates to KB. As to the kind of experiment: In vitro cytotoxic activity was determined against epidermoid carcinoma of the nasopharynx (KB) cell line; Not active. In kind it is functional, cell-based. The settings on record: Homo sapiens.
Regarding `CCCCCCCCCCCCCCCCOc1ccc2c(c1)[nH]c1c(C)nccc12`, the ED50 result was “inactive”.

The next test relates to MCF7. As to the kind of experiment: In vitro cytotoxic activity against MCF-7 (human breast cancer) cell line. The settings on record: read-out: ED50 (the source's name). The format is functional.
As for `CCOc1ccc2c(c1)[nH]c1c(C)nccc12`, the EC50 came to 5 µg/mL (≈ 22.1 µM).
`COc1cc2[nH]c3c(C)nccc3c2cc1Br`: the EC50 was 14.6 µg/mL (≈ 50.1 µM).
For `Cc1nccc2c1[nH]c1cc(OC(=O)C34CCC(C)(C(=O)O3)C4(C)C)ccc12` (centres undefined), the EC50 was 20 µg/mL (≈ 52.9 µM).
Turning to `CCCCCCCCCCOc1ccc2c(c1)[nH]c1c(C)nccc12`, the EC50 came out at 3.8 µg/mL (≈ 11.2 µM).
On to `Cc1[nH]ccc2c1[nH]c1cc(=O)ccc12` [HARMOL], for which the EC50 turned out to be 9.2 µg/mL (≈ 46.4 µM).

The next test deals with MCF7. As to the kind of experiment: In vitro cytotoxic activity was determined against breast cancer (MCF-7) cell line; Not active. The format is functional, cell-based. The settings on record: Homo sapiens.
Turning to `CCCCCCCCCCCCCCCCOc1ccc2c(c1)[nH]c1c(C)nccc12`, the ED50 result is “inactive”.

The subject of another test is SK-MEL-2. As to the kind of experiment: In vitro cytotoxic activity was determined against melanoma cancer (SK-MEL-2) cell line. The format is functional. The settings on record: Homo sapiens, read-out: ED50 (the source's name).
Regarding `CCOc1ccc2c(c1)[nH]c1c(C)nccc12`, the EC50 stood at 9.5 µg/mL (≈ 42 µM).
`COc1cc2[nH]c3c(C)nccc3c2cc1Br`: the EC50 was over 20 µg/mL.
Regarding `Cc1nccc2c1[nH]c1cc(OC(=O)C34CCC(C)(C(=O)O3)C4(C)C)ccc12` (centres undefined), the EC50 was over 20 µg/mL.

The test system of another test is U-87 MG. As to the kind of experiment: In vitro cytotoxic activity against U-87-MG (glioblastoma) cell line. The format is functional, U-87MG ATCC. The conditions noted are these: Homo sapiens, read-out: ED50 (the source's name).
For `COc1cc2[nH]c3c(C)nccc3c2cc1Br`, the EC50 was determined as 14 µg/mL (≈ 48.1 µM).
`CCCCCCCCCCOc1ccc2c(c1)[nH]c1c(C)nccc12`: the EC50 turned out to be 5.4 µg/mL (≈ 16 µM).
Consider `Cc1[nH]ccc2c1[nH]c1cc(=O)ccc12` [HARMOL], for which the EC50 was found to be 4.2 µg/mL (≈ 21.2 µM).

A further test relates to SAOS-2. Nature of the test: In vitro cytotoxic activity was determined against osteosarcoma (SaOS-2) cell line. In kind it is functional. The conditions noted are these: Homo sapiens, read-out: ED50 (the source's name).
For `CCOc1ccc2c(c1)[nH]c1c(C)nccc12`, the EC50 is 20 µg/mL (≈ 88.4 µM).
Still for that read-out and setting: in the case of `Cc1nccc2c1[nH]c1cc(OC(=O)C34CCC(C)(C(=O)O3)C4(C)C)ccc12` (centres undefined) it was over 20 µg/mL.

Another test concerns 1A9. Nature of the test: In vitro cytotoxic activity was determined against ovarian cancer (1A9) cell line. In kind it is functional. The conditions noted are these: Homo sapiens, read-out: ED50 (the source's name).
Take `CCOc1ccc2c(c1)[nH]c1c(C)nccc12`: the EC50 stood at 8 µg/mL (≈ 35.4 µM).
With `COc1cc2[nH]c3c(C)nccc3c2cc1Br`, the EC50 was determined as 2.3 µg/mL (≈ 7.9 µM).
For the molecule `COS(=O)(=O)O.Cc1nccc2c1[nH]c1ccccc12`, the EC50 is over 20 µg/mL.
For the molecule `CCCCCCCCCCCCCCCCOc1ccc2c(c1)[nH]c1c(C)nccc12`, the EC50 was 8 µg/mL (≈ 18.9 µM).
As to `Cc1nccc2c1[nH]c1cc(OC(=O)C34CCC(C)(C(=O)O3)C4(C)C)ccc12` (centres undefined), the EC50 was 19.5 µg/mL (≈ 51.5 µM).
Regarding `CCCCCCCCCCOc1ccc2c(c1)[nH]c1c(C)nccc12`, the EC50 amounted to 1.4 µg/mL (≈ 4.14 µM).
For the molecule `Cc1[nH]ccc2c1[nH]c1cc(=O)ccc12` [HARMOL], the EC50 turned out to be 3.8 µg/mL (≈ 19.2 µM).
